Assays:
[1] = biological target: 5-hydroxytryptamine receptor 7 (Homo sapiens) (UniProt P34969); details: Compound concentration 10.0 uM
[2] = biological target: Megakaryocyte-associated tyrosine-protein kinase (Homo sapiens) (UniProt P42679); details: Compound concentration 1000.0 nM
[3] = biological target: GABA-A receptor; anion channel (Rattus norvegicus) (UniProt O09028+P15431+P18506+P18508+P19969+P20236+P23574+P23576+P28471+P28473+P30191+P62813+P63079+P63138+Q91ZM7+Q9ES14); details: Compound concentration 10.0 uM
[4] = biological target: Aurora kinase A (Homo sapiens) (UniProt O14965); details: Compound concentration 1000.0 nM
[5] = biological target: Casein kinase II subunit alpha (Homo sapiens) (UniProt P68400); details: Compound concentration 1000.0 nM
[6] = biological target: Dual specificity tyrosine-phosphorylation-regulated kinase 1B (Homo sapiens) (UniProt Q9Y463); details: Compound concentration 1000.0 nM
[7] = biological target: Serine/threonine-protein kinase pim-3 (Homo sapiens) (UniProt Q86V86); details: Compound concentration 1000.0 nM
[8] = biological target: Insulin receptor (Homo sapiens) (UniProt P06213); details: Compound concentration 1000.0 nM
Sequence of Insulin receptor (Homo sapiens) (P06213 28-758 limits assumed): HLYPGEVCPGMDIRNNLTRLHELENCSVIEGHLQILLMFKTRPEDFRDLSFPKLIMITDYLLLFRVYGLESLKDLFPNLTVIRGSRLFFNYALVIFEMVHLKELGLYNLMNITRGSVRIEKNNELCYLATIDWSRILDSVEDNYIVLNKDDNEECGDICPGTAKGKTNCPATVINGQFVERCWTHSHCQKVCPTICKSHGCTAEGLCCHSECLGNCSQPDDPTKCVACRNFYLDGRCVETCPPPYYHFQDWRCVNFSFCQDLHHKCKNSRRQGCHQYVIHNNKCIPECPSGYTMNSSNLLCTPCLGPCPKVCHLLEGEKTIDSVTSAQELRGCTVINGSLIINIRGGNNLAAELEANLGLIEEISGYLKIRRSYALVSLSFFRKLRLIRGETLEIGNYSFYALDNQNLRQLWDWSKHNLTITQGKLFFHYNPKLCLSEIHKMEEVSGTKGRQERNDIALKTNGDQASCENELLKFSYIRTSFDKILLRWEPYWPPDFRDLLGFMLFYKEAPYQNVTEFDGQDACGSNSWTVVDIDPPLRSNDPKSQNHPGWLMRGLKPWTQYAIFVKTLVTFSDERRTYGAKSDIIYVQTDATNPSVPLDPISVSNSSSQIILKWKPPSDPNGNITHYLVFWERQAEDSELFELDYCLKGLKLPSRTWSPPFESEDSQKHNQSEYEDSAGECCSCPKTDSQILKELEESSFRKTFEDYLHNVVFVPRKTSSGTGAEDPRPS
Sequence of Insulin receptor (Homo sapiens) (P06213 763-1382 limits assumed): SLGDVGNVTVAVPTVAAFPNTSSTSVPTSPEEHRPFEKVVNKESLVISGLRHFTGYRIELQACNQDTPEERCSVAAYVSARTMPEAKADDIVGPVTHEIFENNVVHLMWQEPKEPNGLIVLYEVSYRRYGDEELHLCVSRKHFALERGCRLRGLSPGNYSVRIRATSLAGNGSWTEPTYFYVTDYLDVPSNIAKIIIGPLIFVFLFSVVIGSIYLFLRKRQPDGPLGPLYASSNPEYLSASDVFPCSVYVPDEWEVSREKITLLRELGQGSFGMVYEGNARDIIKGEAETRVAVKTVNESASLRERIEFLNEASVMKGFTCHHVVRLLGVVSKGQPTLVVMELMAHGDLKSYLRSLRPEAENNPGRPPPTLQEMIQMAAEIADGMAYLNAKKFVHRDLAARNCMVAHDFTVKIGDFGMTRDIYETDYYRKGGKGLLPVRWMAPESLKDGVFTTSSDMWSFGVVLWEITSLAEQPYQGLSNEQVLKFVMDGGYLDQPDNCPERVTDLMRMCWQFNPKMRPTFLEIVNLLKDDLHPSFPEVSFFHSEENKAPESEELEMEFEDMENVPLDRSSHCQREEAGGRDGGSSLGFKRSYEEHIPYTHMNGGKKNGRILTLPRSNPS

[9] = biological target: Cyclin-dependent kinase 9 (Homo sapiens) (UniProt P50750); details: Compound concentration 1000.0 nM
[10] = biological target: cGMP-dependent protein kinase 2 (Homo sapiens) (UniProt Q13237); details: Compound concentration 1000.0 nM
Sequence of cGMP-dependent protein kinase 2 (Homo sapiens) (Q13237 whole entry): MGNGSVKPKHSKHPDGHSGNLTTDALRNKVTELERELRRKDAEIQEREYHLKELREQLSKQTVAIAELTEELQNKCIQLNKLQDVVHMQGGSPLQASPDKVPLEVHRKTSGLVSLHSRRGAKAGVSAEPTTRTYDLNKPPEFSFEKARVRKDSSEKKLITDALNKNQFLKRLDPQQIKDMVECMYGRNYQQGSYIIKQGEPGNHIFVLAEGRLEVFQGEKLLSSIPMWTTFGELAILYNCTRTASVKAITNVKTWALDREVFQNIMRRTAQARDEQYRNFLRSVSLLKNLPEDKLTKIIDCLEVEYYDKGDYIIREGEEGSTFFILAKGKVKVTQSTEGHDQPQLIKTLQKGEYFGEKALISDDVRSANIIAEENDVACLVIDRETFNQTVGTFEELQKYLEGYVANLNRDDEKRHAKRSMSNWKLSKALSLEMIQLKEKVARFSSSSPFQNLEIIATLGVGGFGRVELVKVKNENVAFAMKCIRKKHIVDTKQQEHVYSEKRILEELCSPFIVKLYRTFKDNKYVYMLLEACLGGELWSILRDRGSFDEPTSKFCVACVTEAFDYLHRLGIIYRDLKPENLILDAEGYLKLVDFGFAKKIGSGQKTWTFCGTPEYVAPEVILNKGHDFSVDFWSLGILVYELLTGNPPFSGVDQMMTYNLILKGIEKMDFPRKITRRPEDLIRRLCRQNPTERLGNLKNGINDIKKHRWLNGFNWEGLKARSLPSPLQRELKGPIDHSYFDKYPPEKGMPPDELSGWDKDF

[11] = biological target: Testis-specific serine/threonine-protein kinase 3 (Homo sapiens) (UniProt Q96PN8); details: Compound concentration 1000.0 nM
Sequence of Testis-specific serine/threonine-protein kinase 3 (Homo sapiens) (Q96PN8 whole entry, the tested form may be a part): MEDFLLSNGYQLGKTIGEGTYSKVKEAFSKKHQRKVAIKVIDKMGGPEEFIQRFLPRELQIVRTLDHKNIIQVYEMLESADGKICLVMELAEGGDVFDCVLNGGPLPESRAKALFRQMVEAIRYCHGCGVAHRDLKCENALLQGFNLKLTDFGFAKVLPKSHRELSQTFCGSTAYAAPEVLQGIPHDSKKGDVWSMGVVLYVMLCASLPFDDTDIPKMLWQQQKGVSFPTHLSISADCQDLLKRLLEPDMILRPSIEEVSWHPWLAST

[12] = biological target: Phosphatidylinositol 4-phosphate 3-kinase C2 domain-containing subunit beta (Homo sapiens) (UniProt O00750); details: Compound concentration 1000.0 nM
[13] = tested on: eIF-2-alpha kinase GCN2 (Homo sapiens), Q9P2K8 [S808G]; details: Compound concentration 1000.0 nM
[14] = biological target: Phosphorylase b kinase gamma catalytic chain, skeletal muscle/heart isoform (Homo sapiens) (UniProt Q16816); details: Compound concentration 1000.0 nM
Sequence of Phosphorylase b kinase gamma catalytic chain, skeletal muscle/heart isoform (Homo sapiens) (Q16816 whole entry, looked up, canonical isoform): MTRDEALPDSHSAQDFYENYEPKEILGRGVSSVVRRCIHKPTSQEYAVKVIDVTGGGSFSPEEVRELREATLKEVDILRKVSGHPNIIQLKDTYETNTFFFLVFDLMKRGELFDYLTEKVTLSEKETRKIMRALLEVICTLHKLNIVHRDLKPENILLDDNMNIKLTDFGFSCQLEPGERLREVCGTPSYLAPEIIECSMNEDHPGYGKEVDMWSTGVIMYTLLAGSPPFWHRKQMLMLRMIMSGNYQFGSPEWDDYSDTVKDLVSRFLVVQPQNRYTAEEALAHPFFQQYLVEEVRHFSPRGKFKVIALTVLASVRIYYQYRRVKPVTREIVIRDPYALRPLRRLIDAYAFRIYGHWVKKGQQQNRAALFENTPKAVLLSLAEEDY

[15] = biological target: Serine/threonine-protein kinase NIM1 (Homo sapiens) (UniProt Q8IY84); details: Compound concentration 1000.0 nM
[16] = biological target: Histamine H1 receptor (Homo sapiens) (UniProt P35367); details: Compound concentration 10.0 uM
[17] = biological target: Leucine-rich repeat serine/threonine-protein kinase 2 (Homo sapiens) (UniProt Q5S007); details: Compound concentration 1000.0 nM
[18] = biological target: Phosphatidylinositol 4,5-bisphosphate 3-kinase catalytic subunit beta isoform (Homo sapiens) (UniProt P42338); details: Compound concentration 1000.0 nM
[19] = biological target: Homeodomain-interacting protein kinase 3 (Homo sapiens) (UniProt Q9H422); details: Compound concentration 1000.0 nM
[20] = biological target: Serine/threonine-protein kinase 10 (Homo sapiens) (UniProt O94804); details: Compound concentration 1000.0 nM
[21] = biological target: Serine/threonine-protein kinase 32C (Homo sapiens) (UniProt Q86UX6); details: Compound concentration 1000.0 nM
[22] = tested on: Proto-oncogene tyrosine-protein kinase receptor Ret (Homo sapiens), P07949 [M918T]; details: Compound concentration 1000.0 nM
[23] = biological target: Cyclin-dependent kinase 19 (Homo sapiens) (UniProt Q9BWU1); details: Compound concentration 1000.0 nM
[24] = biological target: Dual specificity tyrosine-phosphorylation-regulated kinase 2 (Homo sapiens) (UniProt Q92630); details: Compound concentration 1000.0 nM
[25] = biological target: D(4) dopamine receptor (Homo sapiens) (UniProt P21917); details: Compound concentration 10.0 uM
[26] = biological target: Maternal embryonic leucine zipper kinase (Homo sapiens) (UniProt Q14680); details: Compound concentration 1000.0 nM
[27] = biological target: 5-hydroxytryptamine receptor 2A (Homo sapiens, UniProt P28223); details: Compound concentration 10.0 uM
[28] = biological target: Receptor-interacting serine/threonine-protein kinase 4 (Homo sapiens) (UniProt P57078); details: Compound concentration 1000.0 nM
[29] = biological target: Mitogen-activated protein kinase 6 (Homo sapiens) (UniProt Q16659); details: Compound concentration 1000.0 nM
[30] = biological target: Tyrosine-protein kinase Tec (Homo sapiens) (UniProt P42680); details: Compound concentration 1000.0 nM
Sequence of Tyrosine-protein kinase Tec (Homo sapiens) (P42680 whole entry): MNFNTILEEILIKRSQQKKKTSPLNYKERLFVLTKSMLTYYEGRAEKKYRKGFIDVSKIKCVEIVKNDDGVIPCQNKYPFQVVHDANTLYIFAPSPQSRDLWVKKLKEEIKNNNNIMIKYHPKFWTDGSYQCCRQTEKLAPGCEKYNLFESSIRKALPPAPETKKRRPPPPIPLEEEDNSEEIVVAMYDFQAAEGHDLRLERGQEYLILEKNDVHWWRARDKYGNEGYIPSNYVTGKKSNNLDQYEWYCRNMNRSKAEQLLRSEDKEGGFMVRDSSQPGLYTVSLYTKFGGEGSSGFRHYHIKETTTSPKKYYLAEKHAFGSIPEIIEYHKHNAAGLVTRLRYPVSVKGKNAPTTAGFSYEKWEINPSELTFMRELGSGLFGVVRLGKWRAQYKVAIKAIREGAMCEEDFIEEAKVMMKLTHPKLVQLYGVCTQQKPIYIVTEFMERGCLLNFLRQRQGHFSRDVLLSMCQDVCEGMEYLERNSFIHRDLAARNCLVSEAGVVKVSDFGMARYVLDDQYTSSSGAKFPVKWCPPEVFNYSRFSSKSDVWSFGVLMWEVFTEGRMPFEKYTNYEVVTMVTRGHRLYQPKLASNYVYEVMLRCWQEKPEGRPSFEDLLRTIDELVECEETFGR

[31] = biological target: Serine/threonine-protein kinase PRP4 homolog (Homo sapiens) (UniProt Q13523); details: Compound concentration 1000.0 nM
[32] = biological target: Cyclin-dependent kinase 4 (Homo sapiens) (UniProt P11802); details: Compound concentration 1000.0 nM
[33] = tested on: Phosphatidylinositol 4,5-bisphosphate 3-kinase catalytic subunit alpha isoform (Homo sapiens), P42336 [M1043I]; details: Compound concentration 1000.0 nM
[34] = biological target: Cyclin-G-associated kinase (Homo sapiens) (UniProt O14976); details: Compound concentration 1000.0 nM
[35] = biological target: Mitogen-activated protein kinase 3 (Homo sapiens) (UniProt P27361); details: Compound concentration 1000.0 nM
[36] = biological target: 5-hydroxytryptamine receptor 2B (Homo sapiens, UniProt P41595); details: Compound concentration 10.0 uM
[37] = biological target: Serine/threonine-protein kinase pim-1 (Homo sapiens) (UniProt P11309); details: Compound concentration 1000.0 nM
[38] = biological target: Serine/threonine-protein kinase RIO3 (Homo sapiens) (UniProt O14730); details: Compound concentration 1000.0 nM
[39] = biological target: Mitogen-activated protein kinase kinase kinase 4 (Homo sapiens) (UniProt Q9Y6R4); details: Compound concentration 1000.0 nM
[40] = biological target: Ribosomal protein S6 kinase alpha-2 (Homo sapiens) (UniProt Q15349); details: Compound concentration 1000.0 nM
[41] = biological target: Ribosomal protein S6 kinase alpha-4 (Homo sapiens) (UniProt O75676); details: Compound concentration 1000.0 nM
[42] = biological target: Tyrosine-protein kinase ABL1 (Homo sapiens) (UniProt P00519); details: Compound concentration 1000.0 nM
[43] = tested on: Epidermal growth factor receptor (Homo sapiens), P00533 [G719S]; details: Compound concentration 1000.0 nM
[44] = tested on: Tyrosine-protein kinase ABL1 (Homo sapiens), P00519 [F317L]; details: Compound concentration 1000.0 nM
Sequence of Tyrosine-protein kinase ABL1 (Homo sapiens), P00519 [F317L] (P00519 whole entry F317L): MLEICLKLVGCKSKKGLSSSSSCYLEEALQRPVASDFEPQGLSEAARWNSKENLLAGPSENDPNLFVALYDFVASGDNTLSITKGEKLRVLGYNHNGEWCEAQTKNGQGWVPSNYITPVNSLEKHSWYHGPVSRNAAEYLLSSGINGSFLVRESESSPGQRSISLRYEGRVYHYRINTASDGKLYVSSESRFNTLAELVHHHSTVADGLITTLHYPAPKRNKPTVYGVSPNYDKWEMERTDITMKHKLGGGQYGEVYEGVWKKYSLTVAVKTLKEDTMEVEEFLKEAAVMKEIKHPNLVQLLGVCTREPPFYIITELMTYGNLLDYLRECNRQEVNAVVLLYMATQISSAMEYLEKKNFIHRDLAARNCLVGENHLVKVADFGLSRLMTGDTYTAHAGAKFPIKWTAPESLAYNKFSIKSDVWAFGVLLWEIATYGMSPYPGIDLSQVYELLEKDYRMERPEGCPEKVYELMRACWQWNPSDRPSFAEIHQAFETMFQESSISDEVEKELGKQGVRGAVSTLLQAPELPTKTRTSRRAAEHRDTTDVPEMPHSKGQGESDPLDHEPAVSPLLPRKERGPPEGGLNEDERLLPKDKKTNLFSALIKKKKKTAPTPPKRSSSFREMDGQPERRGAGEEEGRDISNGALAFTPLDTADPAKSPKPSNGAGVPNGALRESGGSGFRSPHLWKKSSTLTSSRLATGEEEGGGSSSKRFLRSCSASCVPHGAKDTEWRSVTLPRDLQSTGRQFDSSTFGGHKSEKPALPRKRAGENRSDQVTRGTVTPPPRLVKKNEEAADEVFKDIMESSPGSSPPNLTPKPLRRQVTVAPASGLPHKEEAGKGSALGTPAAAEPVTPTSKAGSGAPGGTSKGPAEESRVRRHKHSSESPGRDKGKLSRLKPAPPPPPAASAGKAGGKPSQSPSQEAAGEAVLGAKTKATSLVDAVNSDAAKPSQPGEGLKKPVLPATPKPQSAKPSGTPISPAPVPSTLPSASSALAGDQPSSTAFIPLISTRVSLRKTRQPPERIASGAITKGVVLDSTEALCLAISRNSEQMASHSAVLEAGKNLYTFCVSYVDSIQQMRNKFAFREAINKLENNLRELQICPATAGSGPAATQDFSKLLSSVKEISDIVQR

Sequence of 5-hydroxytryptamine receptor 7 (Homo sapiens) (P34969 whole entry): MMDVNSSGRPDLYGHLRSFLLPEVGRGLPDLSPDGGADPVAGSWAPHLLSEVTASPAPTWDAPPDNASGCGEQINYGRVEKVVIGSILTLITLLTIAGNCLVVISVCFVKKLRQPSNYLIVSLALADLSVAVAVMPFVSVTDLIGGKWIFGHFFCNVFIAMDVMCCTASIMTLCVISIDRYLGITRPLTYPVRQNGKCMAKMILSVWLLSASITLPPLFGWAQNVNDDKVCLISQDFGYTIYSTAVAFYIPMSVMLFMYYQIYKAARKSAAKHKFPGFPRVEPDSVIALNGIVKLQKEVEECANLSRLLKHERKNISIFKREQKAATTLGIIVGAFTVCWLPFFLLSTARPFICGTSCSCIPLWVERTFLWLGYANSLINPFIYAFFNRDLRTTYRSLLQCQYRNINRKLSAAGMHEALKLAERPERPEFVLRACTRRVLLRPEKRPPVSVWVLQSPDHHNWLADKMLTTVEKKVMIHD

`O=C(Nc1cccnn1)N1CC(C/C=C/c2cncc(Oc3ccc(C(F)(F)F)cn3)n2)C1` was tested, and the inhibition [1] was 1.18%, the residual activity [2] was 59% and the inhibition [3] was 17.3%. The residual activity [4] was 100%, the residual activity [5] was 72% and the residual activity [6] was 100%. For the same compound, the residual activity [7] was 100%, the residual activity [8] was 100% and the residual activity [9] was 100%. The residual activity [10] was 91%, the residual activity [11] was 98% and the residual activity [12] was 93%. For the same compound, the residual activity [13] was 97%, the residual activity [14] was 100% and the residual activity [15] was 76%. For the same compound, the inhibition [16] was 30.9%, the residual activity [17] was 90% and the residual activity [18] was 79%. It also gave a residual activity [19] of 74%, a residual activity [20] of 94% and a residual activity [21] of 100%. The residual activity [22] was 96%, the residual activity [23] was 84% and the residual activity [24] was 81%. The inhibition [25] was 12.3%, the residual activity [26] was 100% and the inhibition [27] was -3.55%. For the same compound, the residual activity [28] was 74%, the residual activity [29] was 100% and the residual activity [30] was 100%. For the same compound, the residual activity [31] was 100%, the residual activity [32] was 86% and the residual activity [33] was 100%. The residual activity [34] was 100%, the residual activity [35] was 99% and the inhibition [36] was 2.28%. It also gave a residual activity [37] of 91%, a residual activity [38] of 100% and a residual activity [39] of 100%. It also gave a residual activity [40] of 100%, a residual activity [41] of 92% and a residual activity [42] of 82%. It also gave a residual activity [43] of 100% and a residual activity [44] of 58%.
Compound `O=C(Nc1cccnn1)N1CCC(=Cc2cccc(Oc3ccc(C(F)(F)F)cn3)c2)CC1` has an inhibition [1] of 37.5%, a residual activity [2] of 100% and an inhibition [3] of 7.35%. For the same compound, the residual activity [4] was 100%, the residual activity [5] was 100% and the residual activity [6] was 100%. For the same compound, the residual activity [7] was 79%, the residual activity [8] was 100% and the residual activity [9] was 93%. For the same compound, the residual activity [10] was 100%, the residual activity [11] was 100% and the residual activity [12] was 91%. It also gave a residual activity [13] of 87%, a residual activity [14] of 100% and a residual activity [15] of 100%. The inhibition [16] was 27.2%, the residual activity [17] was 99% and the residual activity [18] was 100%. It also gave a residual activity [19] of 100%, a residual activity [20] of 74% and a residual activity [21] of 100%. For the same compound, the residual activity [22] was 80%, the residual activity [23] was 100% and the residual activity [24] was 81%. For the same compound, the inhibition [25] was -6.93%, the residual activity [26] was 100% and the inhibition [27] was 82.9%. The residual activity [28] was 100%, the residual activity [29] was 90% and the residual activity [30] was 100%. The residual activity [31] was 100%, the residual activity [32] was 100% and the residual activity [33] was 65%. For the same compound, the residual activity [34] was 100%, the residual activity [35] was 100% and the inhibition [36] was 55.7%. It also gave a residual activity [37] of 85%, a residual activity [38] of 100% and a residual activity [39] of 100%. For the same compound, the residual activity [40] was 80%, the residual activity [41] was 100% and the residual activity [42] was 93%. The residual activity [43] was 99% and the residual activity [44] was 100%.
